According to patent US20240368163A1, “COMPOUNDS AND METHODS FOR MODULATING SPLICING” (REMIX THERAPEUTICS INC., priority 2021, published 2024):
pIC50: −log10 of the molar value. Where two headings read alike, the source gives them in different places.

Legend:
Type in all cases: cell-based, human
[1] = system: HTT; experiment: Splicing RT-qPCR assay, HTT mRNA canonical junction (CJ) and alternative junction (AJ); settings: for AC50: increase in AJ mRNA
Method in brief: (§1)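 First, A673 cells adhered 24 h, while K562 cells were plated directly. Next, compounds were added as an 11-point 3-fold series from 10 uM for 24 h. Finally, lysates went to RT-qPCR, with 2^(−ΔΔCt) values converted to percentage response.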

[2] = system: MYB; experiment: Splicing RT-qPCR assay, MYB mRNA canonical junction (CJ) and alternative junction (AJ); settings: for AC50: increase in AJ mRNA
Method in brief: as §1

[3] = system: SMN2; experiment: Splicing RT-qPCR panel, SMN2 canonical junction (CJ) mRNA; settings: RT-qPCR panel, canonical junction mRNA, compound concentration having 50% response in CJ decrease, read-out: SMN2 IC50 (decrease in CJ mRNA levels)
Method in brief: as §1

[4] = system: Target C; experiment: Splicing RT-qPCR panel, Target C canonical junction (CJ) mRNA; settings: RT-qPCR panel, canonical junction mRNA, compound concentration having 50% response in CJ decrease, read-out: Target C IC50 (decrease in CJ mRNA levels)
Method in brief: as §1

[5] = system: MYB; experiment: HiBiT protein abundance assay, MYB; settings: Table 13A, modified K562 cells
Method in brief: (§2)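 Target abundance was measured as HiBiT luminescence after 24 h compound treatment of tagged K562 cells. Responses were normalized between unmodified K562 and DMSO-treated tagged cells, and IC50 taken at the 50% level of a 4PL curve.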

[6] = system: HTT; experiment: HiBiT protein abundance assay, HTT; settings: Table 13A, modified K562 cells
Method in brief: as §2

[7] = system: Target C; experiment: HiBiT protein abundance assay, Target C; settings: Table 13A, modified K562 cells
Method in brief: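 Cells carrying the HiBiT knock-in were plated at 10000 cells/well, dosed with compound (10-point, 3-fold, 10 μM top final) and incubated 24 hours at 37 °C. Lytic reagent was then added and luminescence read. Percent response fed a 4PL fit for IC50.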

[8] = Homo sapiens, 24 h, A673 or K562 cells, 24 hours treatment, RT-qPCR
[9] = Homo sapiens, RT-qPCR panel, canonical junction mRNA, compound concentration having 50% response in CJ decrease, read-out: HTT IC50 (decrease in CJ mRNA levels)
[10] = Homo sapiens, 24 h, decrease in CJ mRNA, A673 or K562 cells, 24 hours treatment, RT-qPCR, read-out: MYB CJ IC50
[11] = Homo sapiens, RT-qPCR panel, canonical junction mRNA, compound concentration having 50% response in CJ decrease, read-out: MYB IC50 (decrease in CJ mRNA levels)
[12] = Homo sapiens, 24 h, decrease in CJ mRNA, A673 or K562 cells, 24 hours treatment, RT-qPCR, read-out: HTT CJ IC50

SMILES	AC50 [1, 8] [nM]	pIC50 [1, 9]	pIC50 [2, 10]	AC50 [2, 8] [nM]	pIC50 [2, 11]	pIC50 ([3]; Homo sapiens)	pIC50 ([4]; Homo sapiens)	pIC50 ([5]; Homo sapiens, K562, 24 h)	pIC50 ([6]; Homo sapiens, K562, 24 h)	pIC50 ([7]; Homo sapiens, K562, 24 h)	pIC50 [1, 12]	pIC50 ([1]; RT-qPCR panel, canonical junction mRNA, compound concentration having 50% response in CJ decrease, read-out: HTT IC50 (decrease in CJ mRNA levels))	pIC50 ([1]; decrease in CJ mRNA, A673 or K562 cells, 24 hours treatment, RT-qPCR, read-out: HTT CJ IC50)	pIC50 ([2]; RT-qPCR panel, canonical junction mRNA, compound concentration having 50% response in CJ decrease, read-out: MYB IC50 (decrease in CJ mRNA levels))	pIC50 ([2]; decrease in CJ mRNA, A673 or K562 cells, 24 hours treatment, RT-qPCR, read-out: MYB CJ IC50)	pIC50 [3]	pIC50 [4]	pIC50 ([5]; 24 hours)	pIC50 ([6]; 24 hours)	pIC50 ([7]; 24 hours)
c1nc2c(-c3cn[nH]c3)ccc(-c3ccc(N[C@@H]4C[C@H]5COC[C@@H](C4)N5)nn3)c2s1 [Compound 354, (endo)-N-{6-[4-(1H-pyrazol-4-yl)-1,3-benzothiazol-7-yl]pyridazin-3-yl}-3-oxa-9-azabicyclo[3.3.1]nonan-7-amine]	100 to 1000	> 7.00	6.00 to 7.00	1000 to 10000	6.00 to 7.00	> 7.00	6.00 to 7.00	6.00 to 7.00	6.00 to 7.00	6.00 to 7.00										
CN(c1ccc(-c2ccc(-c3cn[nH]c3)c3ncsc23)nn1)[C@H]1C[C@H]2COC[C@@H](C1)N2 [Compound 355]	1000 to 10000	5.00 to 6.00	5.00 to 6.00	1000 to 10000	5.00 to 6.00	5.00 to 6.00	5.00 to 6.00	5.00 to 6.00	5.00 to 6.00	5.00 to 6.00	5.00 to 6.00									
c1nc2c(-c3cn[nH]c3)ccc(-c3ccc(O[C@@H]4C[C@H]5COC[C@@H](C4)N5)nn3)c2s1 [Compound 357]	< 100	> 7.00	6.00 to 7.00	100 to 1000	6.00 to 7.00	> 7.00	6.00 to 7.00	6.00 to 7.00	> 7.00	6.00 to 7.00										
c1nc2c(-c3cn[nH]c3)ccc(-c3ccc(O[C@H]4C[C@H]5COC[C@@H](C4)N5)nn3)c2s1 [Compound 358]	> 10000	< 5.00	5.00 to 6.00	> 10000	5.00 to 6.00	< 5.00	< 5.00	5.00 to 6.00	< 5.00	< 5.00	< 5.00									
CCc1n[nH]c2c(-c3ccc(N(C)[C@@H]4C[C@H]5CC[C@@H](C4)N5)nn3)ccc(-c3cnn(C)n3)c12 [Compound 359, (1R,3S,5S)-N-{6-[3-ethyl-4-(2-methyl-1,2,3-triazol-4-yl)-1H-indazol-7-yl]pyridazin-3-yl}-N-methyl-8-azabicyclo[3.2.1]octan-3-amine]	> 10000	< 5.00	< 5.00	> 10000	< 5.00	< 5.00	< 5.00	5.00 to 6.00	< 5.00	< 5.00	< 5.00									
c1nc2c(-c3cn[nH]c3)ccc(-c3ccc(N(C4CC4)C4C[C@H]5CC[C@@H](C4)N5)nn3)c2s1 (stereo partly drawn) [Compound 360, (exo)-N-cyclopropyl-N-{6-[4-(1H-pyrazol-4-yl)-1,3-benzothiazol-7-yl]pyridazin-3-yl}-8-azabicyclo [3.2.1] octan-3-amine]	< 100	> 7.00	6.00 to 7.00	100 to 1000	6.00 to 7.00	6.00 to 7.00	6.00 to 7.00	6.00 to 7.00	6.00 to 7.00	> 7.00										
COc1cc(-c2ccc(-c3ccc(N(C)[C@@H]4C[C@H]5CC[C@@H](C4)N5)nn3)c3[nH]ncc23)ccn1 [Compound 364, (exo)-N-{6-[4-(2-methoxypyridin-4-yl)-1H-indazol-7-yl]pyridazin-3-yl}-N-methyl-8-azabicyclo[3.2.1]octan-3-amine]	< 100	> 7.00	6.00 to 7.00	< 100	6.00 to 7.00	> 7.00	6.00 to 7.00	> 7.00	> 7.00	> 7.00										
CN(c1ccc(-c2ccc(-c3ccc(=O)n(C)c3)c3cn[nH]c23)nn1)[C@@H]1C[C@H]2CC[C@@H](C1)N2 [Compound 365, 5-(7-{6-[(exo)-8-azabicyclo[3.2.1]octan-3-yl(methyl)amino]pyridazin-3-yl}-1H-indazol-4-yl)-1-methylpyridin-2-one]	1000 to 10000	5.00 to 6.00	< 5.00	> 10000	< 5.00	5.00 to 6.00	5.00 to 6.00	5.00 to 6.00	5.00 to 6.00	5.00 to 6.00	5.00 to 6.00									
FC1(F)CC2CC(Oc3ccc(-c4ccc(-c5cn[nH]c5)c5cn[nH]c45)nn3)CC1N2 (stereo not shown) [Compound 374, 7-[6-({6,6-difluoro-8-azabicyclo[3.2.1]octan-3-yl}oxy)pyridazin-3-yl]-4-(1H-pyrazol-4-yl)-1H-indazole]												< 5.00	< 5.00	< 5.00	< 5.00	< 5.00	< 5.00	< 5.00	< 5.00	< 5.00
Cc1n[nH]c2c(-c3ccc(N(C)[C@@H]4C[C@H]5CC[C@@H](C4)N5)nn3)ccc(-c3cnn(C)n3)c12 [Compound 375, (1R,3S,5S)-N-methyl-N-{6-[3-methyl-4-(2-methyl-1,2,3-triazol-4-yl)-1H-indazol-7-yl]pyridazin-3-yl}-8-azabicyclo[3.2.1]octan-3-amine]	> 10000	< 5.00	< 5.00	> 10000	< 5.00	< 5.00	< 5.00	< 5.00	< 5.00	< 5.00	< 5.00									
CC(C)(C)NC1CCN(c2ccc(-c3ccc(-n4cccn4)c4[nH]ncc34)nn2)C1 (stereo not shown) [Compound 380, N-tert-butyl-1-{6-[7-(pyrazol-1-yl)-1H-indazol-4-yl]pyridazin-3-yl}pyrrolidin-3-amine]	1000 to 10000	5.00 to 6.00	5.00 to 6.00	1000 to 10000	5.00 to 6.00	6.00 to 7.00	5.00 to 6.00	5.00 to 6.00	5.00 to 6.00	5.00 to 6.00	5.00 to 6.00									
